The values that follow come from patent publication USRE39088E1, “Amide compounds and use of the same” (Japan Tobacco, Inc., priority 1995, dated 2006).

Counter-ions that a name gives are not always drawn. A value given as a limit tells only on which side of the number the result lay.

The first assay has as its system IL-8. The assay can be described thus: Suppression of production of inflammatory cytokines: IL-8 in LPS-stimulated human peripheral blood monocytes (ELISA). It is filed as cell-based. As to conditions: Homo sapiens, Monocyte, 20 h, supernatant 20 hours after LPS. As to the method:
Suppression of production of inflammatory cytokines
Thirty ml of human peripheral blood added with heparin was placed on Ficol-Paque (15 ml), and centrifuged at 400 G for 40 minutes at room temperature. The obtained monocyte fraction layers were collected and washed three times with E-MEM medium. The cells were adjusted to a final concentration of 0.5×10^5 cells/800 μl with RPMI-1640 medium containing 5% bovine fetal serum (2-mercaptoethanol), and seeded in a 24 well plant by 800 μl. A test sample (100 μl) was added and 100 μl of lipopolysarcharide (LPS, 100 μg/ml) was added one hour later. The supernatant was taken at 20 hours after stimulation with LPS, and amounts of various cytokines were determined using an ELISA kit.
In general terms: In an ELISA, binding on a coated surface is turned into a signal by an enzyme label.
For the compound `CC(C)(C)OC(=O)[C@H](Cc1ccccc1)NC(=O)c1cc(Cl)c(OCCCCN)c(Cl)c1O` [Example 30], the IC50 (in general, the concentration needed to halve the response being measured) was found to be 0.6 µM.
Still for that read-out and setting: for `CCOC(=O)C(Cc1ccccc1)NC(=O)c1cc(Cl)c(OCCCN2CCN(C)CC2)c(Cl)c1O` (centres unmarked) [Example 68] the value was 0.001 µM; for `CCOC(=O)C(Cc1ccccc1)NC(=O)c1cc(Cl)c(OCCCCNC)c(Cl)c1O` (centres unmarked) [Example 21], less than 0.01 µM; for `CCOC(=O)C(Cc1ccccc1)NC(=O)c1cc(Cl)c(OCCC2CCN(C)CC2)c(Cl)c1O` (centres unmarked) [Example 70], 0.006 µM.
Compound `CCOC(=O)C(Cc1ccccc1)NC(=O)c1cc(Cl)c(OCCCCNC)cc1O` (centres unmarked) [Example 71] showed a concentration for half-maximal inhibition (IC50) of 0.04 µM.
The same measure, in the same setting: for `CC1CCCC(C)C1OC(=O)[C@H](Cc1ccccc1)NC(=O)c1cc(Cl)c(OCCCCN)c(Cl)c1O` (some centres unmarked) [Example 47] the value was 3 µM.
As for `CNCCOc1c(Cl)cc(C(=O)N[C@@H](Cc2ccccc2)C(=O)OC)c(O)c1Cl` [Example 11], the IC50 was 0.4 µM.
In the case of `CC1CN(CCOc2c(Cl)cc(C(=O)N[C@@H](Cc3ccccc3)C(=O)O)c(O)c2Cl)CCN1` (some centres unmarked) [Example 129], the IC50 amounted to 2 µM.
Same read-out and setting: in the case of `COC(=O)[C@H](Cc1ccccc1)NC(=O)c1cc2cccc(OCCCCN)c2cc1O` [Example 146, (2S)-3-Phenyl-2-[5-(4-aminobutoxy)-3-hydroxy-2-naphthoylamino]-propionic acid methyl ester hydrochloride] it was 5 µM; in that of `CNCCCCCc1ccc(C(=O)N[C@@H](Cc2ccccc2)C(=O)OC)c(O)c1` [Example 89], 0.6 µM; in that of `CNCCCCOc1c(Cl)cc(C(=O)N[C@@H](CC2CCCCC2)C(=O)OC)c(O)c1Cl` [Example 34], 2 µM.
For the compound `COC(=O)[C@H](Cc1ccccc1)NC(=O)c1cc(Cl)c(OCCN2CCN(C)CC2)c(Cl)c1O` [Example 58], half-maximal inhibition (IC50) was put at 0.02 µM.
Same read-out and setting: for `CNCCCCCc1c(Cl)cc(C(=O)N[C@@H](Cc2ccccc2)C(=O)OC)c(O)c1Cl` [Example 91, N-[3,5-Dichloro-2-hydroxy-4-(5-methylaminopentyl)benzoyl]-L-phenylalanine methyl ester hydrochloride] the value was 0.001 µM; for `COC(=O)[C@H](Cc1ccccc1)NC(=O)c1cc(Cl)c(OCCN2CCNC(C)C2)c(Cl)c1OC(C)=O` (some centres unmarked) [Example 122], less than 0.01 µM; for `CCOC(=O)C(Cc1ccccc1)NC(=O)c1cc(Cl)c(CCCN2CCC(N)CC2)c(Cl)c1O` (centres unmarked) [Example 103], 0.7 µM.
Same read-out and setting: in the case of `NCCCCOc1c(Cl)cc(C(=O)N[C@@H](Cc2ccccc2)C(N)=O)c(O)c1Cl` [Example 139] it was 4 µM.
The same measure, in the same setting: for `NCCCCOc1c(Cl)cc(C(=O)N[C@@H](Cc2ccccc2)C(=O)ON=C2CCCCC2)c(O)c1Cl` [Example 57] the value was 0.05 µM; for `COC(=O)[C@H](Cc1ccccc1)NC(=O)c1cc(Cl)c(OCCCCO)c(Cl)c1O` [Example 87], 0.2 µM; for `CCOC(=O)C(Cc1ccccc1)NC(=O)c1cc(Cl)c(OCCN2CCNCC2)c(Cl)c1O` (centres unmarked) [Example 64], 0.05 µM.
For the compound `CCOC(=O)COC(=O)[C@H](Cc1ccccc1)NC(=O)c1cc(Cl)c(OCCCCN)c(Cl)c1O` [Example 43], the IC50 amounted to 0.03 µM.
Compound `CCOC(=O)C(Cc1ccccc1)NC(=O)c1cc(Cl)c(OCCC2CCNCC2)c(Cl)c1O` (centres unmarked) [Example 69] yielded a half-maximal inhibitory concentration (IC50) of less than 0.001 µM.
Still for that read-out and setting: for `CCOC(=O)C(Cc1ccccc1)NC(=O)c1cc(Cl)c(OCCCN2CCNCC2)c(Cl)c1O` (centres unmarked) [Example 67] the value was 0.05 µM.
As for `CCOC(=O)C(Cc1ccccc1)NC(=O)c1cc(Cl)c(CCCC2CCN(C)CC2)c(Cl)c1O` (centres unmarked) [Example 100], the IC50 turned out to be 0.001 µM.
On to `CCOC(=O)C(Cc1ccccc1)NC(=O)c1cc(C)c(OCCCCNC)c(C)c1O` (centres unmarked) [Example 77], for which the half-maximal inhibitory concentration (IC50) was 3 µM.
The same measure, in the same setting: for `CCOC(=O)C(Cc1ccccc1)NC(=O)c1cc(Br)c(OCCCCN)cc1O` (centres unmarked) [Example 74] the value was 0.07 µM; for `COC(=O)[C@H](Cc1ccccc1)NC(=O)c1cc(Cl)c(OCCN2CCN(C)C(C)C2)c(Cl)c1O` (some centres unmarked) [Example 63], 0.1 µM.
In turn, `CCOC(=O)C(Cc1ccccc1)NC(=O)c1cc(Cl)c(OCCN2CCN(C)CC2)c(Cl)c1OC(C)=O` (centres unmarked) [Example 125] showed a concentration for half-maximal inhibition (IC50) of 0.01 µM.
Still for that read-out and setting: in the case of `CNCCCCOc1ccc(C(=O)N[C@@H](Cc2ccccc2)C(=O)OC)c(O)c1Cl` [Example 7] it was 8 µM.
The same measure, in the same setting: for `CCOC(=O)[C@H](Cc1ccccc1)NC(=O)c1ccc(-c2ccc(OCCCCNC)cc2)cc1` [Example 147, N-[4-[4-(4-Methylaminobutoxy)phenyl]benzoyl]-L-phenylalanine ethyl ester hydrochloride] the value was 2 µM.
The same measure, in the same setting: in the case of `CNCCCCNc1c(Cl)cc(C(=O)N[C@@H](Cc2ccccc2)C(=O)OC)c(O)c1Cl` [Example 136, N-[3,5-Dichloro-2-hydroxy-4-(4-methylaminobutylamino)benzoyl]-L-phenylalanine methyl ester dihydrochloride] it was 0.2 µM; in that of `CCOC(=O)[C@H](Cc1ccccc1)NC(=O)c1ccc2oc(SCCCNC)nc2c1` [Example 152, (2S)-2-[2-(3-Methylaminopropylsulfanyl)benzoxazole-5-carbonyl-amino]-3-phenylpropionic acid ethyl ester hydrochloride], 7 µM; in that of `CN(C)CCCCOc1c(Cl)cc(C(=O)N[C@@H](Cc2ccccc2)C(=O)OCc2ccccc2)c(O)c1Cl` [Example 55], less than 0.01 µM.
For the compound `CNCCCCOc1c(Cl)cc(C(=O)N[C@@H](Cc2ccccc2)C(=O)OCC(C)C)c(O)c1Cl` [Example 29], the IC50 was less than 0.01 µM.
On the same count and under the same terms, for `NCCCCOc1c(Cl)cc(C(=O)N[C@@H](Cc2ccccc2)C(=O)Nc2ccccn2)c(O)c1Cl` [Example 142] the value was 0.4 µM; for `CC(OC(=O)[C@H](Cc1ccccc1)NC(=O)c1cc(Cl)c(OCCCCN)c(Cl)c1O)N1CCNCC1` (some centres unmarked) [Example 56], 4 µM.
On the same count and under the same terms, in the case of `Cc1noc([C@H](Cc2ccccc2)NC(=O)c2cc(Cl)c(OCCCCN)c(Cl)c2O)n1` [Example 144, N-[4-(4-Aminobutoxy)-3,5-dichloro-2-hydroxybenzoyl]-1-(3-methyl-1,2,4-oxadizaol-5-yl)-2-phenylethylamine hydrochloride] it was 29 µM; in that of `NCCCCOc1c(Cl)cc(C(=O)N[C@@H](Cc2ccccc2)C(=O)Nc2ccc(F)cc2)c(O)c1Cl` [Example 141], 3 µM.
As for `CCOC(=O)C(Cc1ccccc1)NC(=O)c1cc(Cl)c(OCCCCCCCN)c(Cl)c1O` (centres unmarked) [Example 26], the IC50 came to 0.009 µM.
The compound `CN1CCC(OC(=O)[C@H](Cc2ccccc2)NC(=O)c2cc(Cl)c(OCCCCN)c(Cl)c2O)CC1` [Example 48] had an IC50 of 0.2 µM.
Take `CC(C)COC(=O)[C@H](Cc1ccccc1)NC(=O)c1cc(Cl)c(OCCCCN)c(Cl)c1O` [Example 28]: the IC50 is less than 0.01 µM.
`CCOC(=O)C(Cc1ccccc1)NC(=O)c1cc(Cl)c(OC(=O)C2(CC)CCNCC2)cc1O` (centres unmarked) [Example 156] returned an IC50 of 2 µM.
`CCOC(=O)C(Cc1ccccc1)NC(=O)c1cc(Cl)c(CCCN2CCNCC2)c(Cl)c1O` (centres unmarked) [Example 102] returned an IC50 of 0.002 µM.
For `CCOC(=O)C(Cc1ccccc1)NC(=O)c1cc(Cl)c(CCCC2CCNCC2)c(Cl)c1O` (centres unmarked) [Example 101], the IC50 was 0.003 µM.
The same measure, in the same setting: for `CCOC(=O)C(Cc1ccccc1)NC(=O)c1cc(Cl)c(CCCCCN(C)C)cc1O` (centres unmarked) [Example 94] the value was 1 µM.
Same read-out and setting: for `CCOC(=O)C(Cc1ccccc1)N(C)C(=O)c1cc(Cl)c(OCCCCN)c(Cl)c1O` (centres unmarked) [Example 20] the value was 29 µM; for `CNCCCCOc1c(Cl)cc(C(=O)N[C@@H](Cc2ccccc2)C(=O)OC)c(OC(=O)COC(C)=O)c1Cl` [Example 110], less than 0.01 µM; for `CNCCCCOc1c(Cl)cc(C(=O)N[C@@H](Cc2ccccc2)C(=O)OCCN(C(C)C)C(C)C)c(O)c1Cl` [Example 85], 0.07 µM.
`CN(C)CCCCCc1c(Cl)cc(C(=O)N[C@@H](Cc2ccccc2)C(=O)O)c(O)c1Cl` [Example 133]: half-maximal inhibition (IC50) was put at 0.2 µM.
On the same count and under the same terms, in the case of `CCOC(=O)C(Cc1ccccc1)NC(=O)c1cc(Cl)c(OCCCCN(C)C)cc1O` (centres unmarked) [Example 72] it was 0.1 µM.
`NCCCCOc1c(Cl)cc(C(=O)N[C@@H](Cc2ccccc2)C(=O)OC2C3CC4CC(C3)CC2C4)c(O)c1Cl` (some centres unmarked) [Example 49] yielded an IC50 of 0.02 µM.
On the same count and under the same terms, for `CCNCCCCOc1c(Cl)cc(C(=O)N[C@@H](Cc2ccccc2)C(=O)OC)c(O)c1Cl` [Example 16] the value was 0.03 µM.
`CNCCCCOc1cc(O)c(C(=O)N[C@@H](Cc2ccccc2)C(=O)OC)cc1C` [Example 76] returned a half-inhibitory concentration (IC50) of 0.3 µM.

The assay is the same for the next values; noted with them: Monocyte, supernatant 20 hours after LPS.
The compound `CN1CCN(CCOc2c(Cl)cc(C(=O)N[C@@H](Cc3ccccc3)C(=O)O)c(O)c2Cl)CC1` [Example 134] displayed an IC50 of 0.2 µM.

Still in this assay, the particulars now being: supernatant 20 hours after LPS.
As for `CNCCCCOc1c(Cl)cc(C(=O)N[C@@H](Cc2ccccc2)C(=O)NO)c(O)c1Cl` [Example 143, N-[3,5-Dichloro-2-hydroxy-4-(4-methylaminobutoxy)benzoyl]-L-phenylalanylhydroxyamide], the half-inhibitory concentration (IC50) amounted to 3 µM.

Staying with this assay, now noted: supernatant 20 hours after LPS, listed as Example No. 88, hydrochloride.
In turn, `CNCCCCc1ccc(C(=O)N[C@@H](Cc2ccccc2)C(=O)OC)c(O)c1` [Example 88, N-[2-Hydroxy-4-(4-methylaminobutyl)benzoyl]-L-phenylalanine methyl ester hydrochloride] registered an IC50 of 3 µM.

The assay is the same for the next values; noted with them: supernatant 20 hours after LPS, listed as Example No. 90.
Compound `CNCCCCc1ccc(C(=O)N[C@@H](Cc2ccccc2)C(=O)OC)c(O)c1` [Example 90] displayed an IC50 of 0.6 µM.
